From US8735140B2, “Preservation and composition of bioprocess algae for production of lipids, seedstock, and feed” (Kuehnle AgroSystems, Inc., priority 2008, dated 2014)

Columns and labels:
Format in all cases: cell-based
algal cells = experiment: Trehalose preservation, evaporative drying and rehydration
Experimental: In the experimental set, trehalose supplied from two different manufacturers (Sigma Aldrich Co.; Hayashibara Co.) is used at 0.5 M, 1.0 M, and 2.0 M each, in each of three different media (dH2O, 1M NaCl, 2.75 M NaCl algae media). In the control set, dH2O, 1 M NaCl medium, and 2.75 M NaCl medium are prepared, all lacking trehalose. The starting density of cells used for preliminary experiments is 4.59×10^5 cells/mL. The cells are spun down and re-suspended in trehalose solutions, and further equilibrate overnight at 28° C. Cells are then re-suspended in 10 mL of its corresponding medium and transferred to 25 mL canted neck tissue culture flasks (Falcon Co.). The cultures are allowed to settle and proliferate without shaking under low light (11 μE/m2/sec) for nine days. Cells are counted again to determine whether cells would multiply in each respective medium without intervening sub-culture. […] After a week of drying, all the cells are re-hydrated in 5 mL of 1M NaCl growth medium in the morning and viable cells are counted the same afternoon. […] Viability is determined by growth curves over time, by the percentage of motile cells or by the green appearance as indicative of photosynthetic activity. […]

Chlorella KAS503 = experiment: Trehalose preservation, storage by embedding in alginate mat
Experimental: (§1) Flask cultures (40 ml) of cells are grown to mid-log phase with a density between 3×10^6 and 3×10^7 cells/ml, and are centrifuged. Culture medium is removed after centrifugation, resulting in more concentrated algae cells. Cells are then re-suspended in fresh medium and left overnight. Cells are centrifuged again the next day in order to remove the medium, and are then re-suspended in fresh or salt water without any nutrient. The cell density of the suspension is determined prior to storage under the various treatments. Cells in 40 ml flask cultures are grown to mid-log phase with a density of between 3×10^6 and 3×10^7 cells/ml, and are centrifuged. Culture medium is removed after centrifugation, resulting in more concentrated algae cells. Cells are then re-suspended in ideal glass solution consisting of fresh culture medium and trehalose at a concentration of 0.1M, 0.3M, and 0.5M (dihydrate trehalose 100 from Hayashibara Co. Ltd, Okayama, Japan), respectively, and left overnight with mild agitation. Cells are centrifuged again to remove the ideal glass solution the next day, and are re-suspended in fresh or salt water without any nutrient. The cell density of the resulting suspension is determined prior to storage under the various treatments. (Some cells were also treated with a 0.5M sorbitol solution). In one specific embodiment, 2% (w/v) alginate solution (Sigma-Aldrich A-2033) and 3% CaCl2 solution (Sigma-Aldrich C1016) are prepared in salt water or fresh water medium as required by specific algae species, and autoclave sterilized. Then, 2.0 ml 2% alginate solution is pipetted into each well of a BD Falcon 12-well plate. 0.2 ml algae cell suspension is then pipetted into each well and the mixture is further stirred. The alginate-cell mixture is further sprayed with 3% CaCl2 solution in a sterile pump bottle, allowing the alginate to solidify. After solidification, plates are closed and placed under low light and at ambient temperature. After stored under the above preservation conditions for 5 months, algae cells can be rejuvenated by overlaying alginate/algae mixture with 3.0 ml sterile 5.0% NaPolyphosphate (Sigma Aldrich 305553) and allowing to the mixture sit overnight. The algae/alginate/NaPolyphosphate mixture is then removed from the 12-well plate, diluted with fresh medium (3 parts fresh medium to 1 part cell suspension) and placed under light. Cell viability is determined by comparing the cell growth in control set with the experimental set. Specifically, cell counts are performed on all samples. The averaged density value (in cells per ml) for all the cultures after treatment is defined as “rejuvenation cell count.” In some samples, the percent recovery of cells immediately after storage is also determined. The formulae are illustrated as follows: Growth=(rejuvenation cell count)/(initial cell count) Cell recovery after storage=(cell density after storage)/(initial cell density), with controls set at 100% cell recovery. Viability after storage and rejuvenation in nutrient medium=(Growth of treatment)/(Growth of control)×100%, with controls set at 100% viability

Chlorella KAS603 = experiment: as above
Experimental: as §1

Tetraselmis KAS633 = experiment: as above
Experimental: as §1

Synechocystis KAS635 = experiment: as above; details: 0.3M trehalose in BG11 only
Experimental: as §1

[1] = 0.3M trehalose in F/2, 21 weeks storage and 3 weeks rejuvenation
[2] = 0.3M trehalose in F/2, 21 weeks storage and 3 weeks rejuvenation in nutrient medium
[3] = 0.3M trehalose in F/2, 21 weeks storage in water (no nutrients)
[4] = 0.3M trehalose in F/2, 21 weeks storage, 0M control = 100%
[5] = 0.3M trehalose in F/2, 21 weeks storage, density after storage/initial density
[6] = 0.3M trehalose in F/2, 21 weeks storage and 3 weeks rejuvenation, 0M control = 100%

OC[C@H]1O[C@H](O[C@H]2O[C@H](CO)[C@@H](O)[C@H](O)[C@H]2O)[C@H](O)[C@@H](O)[C@@H]1O [trehalose, α-D-glycosyl-α-D-glycosylpyranoside]
Cell appearance of preserved samples versus controls (algal cells; after rehydration, light microscope): No significant differences in cell appearance | Cell viability after a week of drying and re-hydration (algal cells; in 1M NaCl growth medium, compared with Sigma trehalose and other media): best preserved | Growth (Chlorella KAS503; [1]): 5.46 | Cell number after storage & regrowth (Chlorella KAS503; [2]): 1.012 × 10^8 cells/ml | Cell number after storage (Chlorella KAS503; [3]): 1.860 × 10^7 cells/ml | Cell recovery after storage, relative to control (Chlorella KAS503; [4]): (84%) | Cell recovery after storage (Chlorella KAS503; [5]): 1.8 | Growth (Chlorella KAS603; [1]): 2.72 | Cell number after storage & regrowth (Chlorella KAS603; [2]): 4.480 × 10^7 cells/ml | % Viability (Chlorella KAS603; [6]): (149%) | Cell number after storage (Chlorella KAS603; [3]): 1.646 × 10^7 cells/ml | Cell recovery after storage, relative to control (Chlorella KAS603; [4]): (221%) | Growth (Tetraselmis KAS633; [1]): 4.63 | Cell number after storage & regrowth (Tetraselmis KAS633; [2]): 1.375 × 10^7 cells/ml | % Viability (Tetraselmis KAS633; [6]): (102%) | Cell number after storage (Tetraselmis KAS633; [3]): 2.97 × 10^6 cells/ml | Cell recovery after storage, relative to control (Tetraselmis KAS633; [4]): (142%) | Cell recovery after storage (Tetraselmis KAS633; [5]): 2.22 | Growth (Synechocystis KAS635; 21 weeks storage and 3 weeks rejuvenation): 4.72 | Cell number after storage & regrowth (Synechocystis KAS635; 21 weeks storage and 3 weeks rejuvenation in nutrient medium): 4.620 × 10^7 cells/ml | % Viability (Synechocystis KAS635; 21 weeks storage and 3 weeks rejuvenation, 0M control = 100%): 129% | Cell number after storage (Synechocystis KAS635; 21 weeks storage in water (no nutrients)): 9.798 × 10^6 cells/ml | Cell recovery after storage, relative to control (Synechocystis KAS635; 21 weeks storage, 0M control = 100%): (180%) | Cell recovery after storage (Synechocystis KAS635; 21 weeks storage, density after storage/initial density): 0.29
